The values below come from ChEMBL document CHEMBL1130812, “The design and synthesis of inhibitors of the cysteinyl protease, Der p I” (Bioorg Med Chem Lett, 1998).

Assay [1] concerns Dermatophagoides pteronyssinus. The experiment in a line: Inhibitory activity against Cysteinyl protease was evaluated by method A.
Assay [2] deals with Dermatophagoides pteronyssinus. The experiment in a line: Inhibitory activity against Cysteinyl protease was evaluated by method B.
Assay [3] relates to Dermatophagoides pteronyssinus. As to the kind of experiment: Inhibitory activity against Cysteinyl protease was evaluated by method A in experiment 2.
Assay [4] relates to Dermatophagoides pteronyssinus. As to the kind of experiment: Inhibitory activity against Cysteinyl protease was evaluated by method A in experiment 1.
Assay [5] is described as follows: Reversible Inhibitory activity on Cysteinyl protease was evaluated. Also on record: species or system Dermatophagoides pteronyssinus.
Assay [6] can be described thus: Inhibitory activity against Cysteinyl protease was evaluated. Further details: species or system Dermatophagoides pteronyssinus.

Where a SMILES comes first, the peptide text is derived from it. The star is where a group is joined. Boc = CC(C)(C)OC(=O)*

The Ki is the equilibrium dissociation constant of an inhibitor or competing ligand from its target.

Take `CCOC(=O)/C=C/[C@H](CC(C)C)NC(=O)[C@H](C)NC(=O)[C@@H](NC(C)=O)C(C)C`: the k obs / 1 in assay [1] is less than 100 M⁻¹ s⁻¹. As for `CCCC[C@H](NC(=O)[C@H](C)NC(=O)[C@@H](NC(=O)c1ccccc1)C(C)C)C(=O)COC(=O)c1c(Cl)cccc1Cl`, the k obs / 1 in assay [2] worked out at 6.8e+07 M⁻¹ s⁻¹. As to `CCCC[C@H](NC(=O)[C@H](C)NC(=O)[C@@H](NC(=O)c1ccccc1)C(C)C)C(=O)COC(=O)c1c(C(F)(F)F)cccc1C(F)(F)F`, the k obs / 1 in assay [2] came to 1.3e+07 M⁻¹ s⁻¹; in assay [3], 2.2e+06 M⁻¹ s⁻¹; in assay [4], 1e+06 M⁻¹ s⁻¹. Take `CCCC[C@H](NC(=O)[C@H](C)NC(=O)[C@@H](NC(=O)c1ccccc1)C(C)C)C(=O)COC(=O)c1ccccc1`: the k obs / 1 in assay [3] stood at 50000 M⁻¹ s⁻¹; in assay [4] it was 370000 M⁻¹ s⁻¹. Molecule `CCOC(=O)/C=C/[C@H](CC(C)C)NC(=O)[C@H](C)NC(=O)[C@@H](N)C(C)C` yielded a k obs / 1 in assay [1] of less than 100 M⁻¹ s⁻¹.

Take `CC(C)C[C@@H](/C=C/S(C)(=O)=O)NC(=O)[C@H](C)NC(=O)[C@@H](NC(=O)OC(C)(C)C)C(C)C`: the figures for the k obs / 1 in assay [3] and in assay [4] were 11000 M⁻¹ s⁻¹ and 1100 M⁻¹ s⁻¹, respectively.

Regarding `CCCC[C@H](NC(=O)[C@H](C)NC(=O)[C@@H](NC(=O)c1ccccc1)C(C)C)C(=O)CBr`, the Ki in assay [5] came out at 1.6 nM. On to `CCOC(=O)/C=C/[C@H](CC(C)C)NC(=O)[C@H](C)NC(=O)[C@@H](NC(=O)OC(C)(C)C)C(C)C`, for which the k obs / 1 in assay [3] is 7900 M⁻¹ s⁻¹; in assay [4], 1700 M⁻¹ s⁻¹. Consider `CC(C)C[C@@H](/C=C/S(=O)(=O)Cc1ccccc1)NC(=O)[C@H](C)NC(=O)[C@@H](NC(=O)OC(C)(C)C)C(C)C`, for which the k obs / 1 in assay [3] stood at 350000 M⁻¹ s⁻¹; in assay [4], 2300 M⁻¹ s⁻¹. With `CC(C)C[C@@H](C=O)NC(=O)[C@H](C)NC(=O)[C@@H](NC(=O)OC(C)(C)C)C(C)C` (Boc-Val-Ala-Leu-aldehyde), the Ki in assay [6] amounted to 14 nM. Take `CCCC[C@H](NC(=O)[C@H](C)NC(=O)[C@@H](NC(=O)c1ccccc1)C(C)C)C(=O)COC(=O)c1c(C)cccc1C`: in assay [2], the k obs / 1 was 1.6e+07 M⁻¹ s⁻¹. For `CC(C)C[C@@H](/C=C/S(=O)(=O)c1ccccc1)NC(=O)[C@H](C)NC(=O)[C@@H](NC(=O)OC(C)(C)C)C(C)C`, the k obs / 1 stood at 25000 M⁻¹ s⁻¹ in assay [3] and 6400 M⁻¹ s⁻¹ in assay [4]. The corresponding values for `CCOC(=O)/C=C/[C@H](CC(C)C)NC(=O)[C@H](C)NC(=O)[C@@H](NC(=O)c1ccccc1)C(C)C` are 16000 M⁻¹ s⁻¹ and 4100 M⁻¹ s⁻¹.
